# Patent US9492471B2, “Methods of treating a disease or disorder associated with Bruton'S Tyrosine Kinase” (Celgene Avilomics Research, Inc., priority 2013, dated 2016)
# Read-outs that look alike come from different tables or passages of the source.
# Tests used:
# Assay in all cases: HotSpot kinase profiling
# Type in all cases: biochemical
# MSK1/RPS6KA5 = target: T1, MSK1/RPS6KA5 (Homo sapiens, UniProt O75582)
# T1 construct: purchased Reaction Biology Corp
# Outline: (§1)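 Radiometric kinase assay with P81 filter capture; each kinase was added to fresh substrate plus cofactors in reaction buffer and incubated 2 h at room temperature. Unreacted phosphate was washed off with 0.1% phosphoric acid before detection; percent inhibition is relative to DMSO control, averaged over replicates.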
# CDK5/p35 = target: T2, CDK5/p35 (Homo sapiens, UniProt Q00535)
# T2 construct: purchased Reaction Biology Corp
# Outline: as §1
# TLK1 = target: T3, TLK1 (Homo sapiens, UniProt Q9UKI8)
# T3 construct: purchased Reaction Biology Corp
# T3 sequence (Q9UKI8 1-766): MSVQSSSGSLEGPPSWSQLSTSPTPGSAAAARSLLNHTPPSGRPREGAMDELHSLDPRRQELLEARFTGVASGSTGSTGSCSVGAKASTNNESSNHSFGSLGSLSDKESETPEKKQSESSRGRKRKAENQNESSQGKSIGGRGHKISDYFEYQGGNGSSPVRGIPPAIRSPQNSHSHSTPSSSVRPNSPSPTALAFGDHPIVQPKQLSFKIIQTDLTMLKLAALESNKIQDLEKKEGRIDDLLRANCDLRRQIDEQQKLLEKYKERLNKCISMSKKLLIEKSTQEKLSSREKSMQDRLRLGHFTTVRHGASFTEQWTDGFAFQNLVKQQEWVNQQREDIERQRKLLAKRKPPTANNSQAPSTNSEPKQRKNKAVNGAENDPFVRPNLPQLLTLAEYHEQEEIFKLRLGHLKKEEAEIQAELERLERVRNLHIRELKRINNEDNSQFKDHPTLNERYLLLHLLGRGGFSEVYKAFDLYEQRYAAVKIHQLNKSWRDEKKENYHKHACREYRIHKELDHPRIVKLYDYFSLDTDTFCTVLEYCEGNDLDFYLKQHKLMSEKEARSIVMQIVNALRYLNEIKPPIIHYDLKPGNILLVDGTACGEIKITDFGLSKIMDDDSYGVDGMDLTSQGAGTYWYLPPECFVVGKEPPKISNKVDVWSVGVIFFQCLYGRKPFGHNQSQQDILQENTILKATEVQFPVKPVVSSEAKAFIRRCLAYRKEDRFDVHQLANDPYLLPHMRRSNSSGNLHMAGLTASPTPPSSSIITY
# Outline: as §1
# P70S6Kb/RPS6KB2 = target: T4, P70S6Kb/RPS6KB2 (Homo sapiens, UniProt Q9UBS0)
# T4 construct: purchased Reaction Biology Corp
# Outline: as §1
# HPK1/MAP4K1 = target: T5, HPK1/MAP4K1 (Homo sapiens, UniProt Q92918)
# T5 construct: purchased Reaction Biology Corp
# Outline: as §1
# SSTK/TSSK6 = target: T6, SSTK/TSSK6 (Homo sapiens, UniProt Q9BXA6)
# T6 construct: purchased Reaction Biology Corp
# Outline: as §1
# HCK = target: T7, HCK (Homo sapiens, UniProt P08631)
# T7 construct: purchased Reaction Biology Corp
# Outline: as §1
# GRK7 = target: T8, GRK7 (Homo sapiens, UniProt Q8WTQ7)
# T8 construct: purchased Reaction Biology Corp
# T8 sequence (Q8WTQ7 1-553): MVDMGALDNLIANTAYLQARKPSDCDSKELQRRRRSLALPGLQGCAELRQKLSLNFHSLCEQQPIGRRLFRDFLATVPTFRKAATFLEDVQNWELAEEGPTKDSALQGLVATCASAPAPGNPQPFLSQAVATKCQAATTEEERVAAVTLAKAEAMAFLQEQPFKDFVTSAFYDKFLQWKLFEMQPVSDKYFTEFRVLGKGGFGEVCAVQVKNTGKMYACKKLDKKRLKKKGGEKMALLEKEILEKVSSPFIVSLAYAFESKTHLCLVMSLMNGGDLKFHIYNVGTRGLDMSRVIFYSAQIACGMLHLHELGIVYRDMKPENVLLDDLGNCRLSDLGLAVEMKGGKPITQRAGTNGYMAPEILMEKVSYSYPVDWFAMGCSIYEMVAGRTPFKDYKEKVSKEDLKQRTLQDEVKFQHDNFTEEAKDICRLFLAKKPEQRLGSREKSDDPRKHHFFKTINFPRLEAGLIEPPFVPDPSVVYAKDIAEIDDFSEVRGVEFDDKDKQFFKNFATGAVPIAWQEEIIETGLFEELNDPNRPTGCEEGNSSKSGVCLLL
# Outline: as §1
# [1] = read-out: % Enzyme Activity (relative to DMSO controls) Run 1
# [2] = read-out: % Enzyme Activity (relative to DMSO controls) Run 2
# T4 sequence (Q9UBS0 whole entry): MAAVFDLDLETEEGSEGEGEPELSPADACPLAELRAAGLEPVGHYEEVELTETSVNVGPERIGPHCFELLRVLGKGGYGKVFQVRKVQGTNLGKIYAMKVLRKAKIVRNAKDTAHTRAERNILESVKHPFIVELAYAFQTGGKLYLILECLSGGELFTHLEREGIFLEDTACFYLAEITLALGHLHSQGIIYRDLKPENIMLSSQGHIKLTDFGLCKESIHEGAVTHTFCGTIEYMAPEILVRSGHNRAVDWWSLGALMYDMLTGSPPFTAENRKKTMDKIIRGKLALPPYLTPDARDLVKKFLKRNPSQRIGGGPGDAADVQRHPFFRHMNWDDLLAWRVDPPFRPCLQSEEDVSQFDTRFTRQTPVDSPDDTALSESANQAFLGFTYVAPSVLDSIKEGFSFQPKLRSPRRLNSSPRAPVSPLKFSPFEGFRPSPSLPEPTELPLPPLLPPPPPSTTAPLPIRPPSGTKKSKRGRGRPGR
# T7 sequence (P08631 whole entry): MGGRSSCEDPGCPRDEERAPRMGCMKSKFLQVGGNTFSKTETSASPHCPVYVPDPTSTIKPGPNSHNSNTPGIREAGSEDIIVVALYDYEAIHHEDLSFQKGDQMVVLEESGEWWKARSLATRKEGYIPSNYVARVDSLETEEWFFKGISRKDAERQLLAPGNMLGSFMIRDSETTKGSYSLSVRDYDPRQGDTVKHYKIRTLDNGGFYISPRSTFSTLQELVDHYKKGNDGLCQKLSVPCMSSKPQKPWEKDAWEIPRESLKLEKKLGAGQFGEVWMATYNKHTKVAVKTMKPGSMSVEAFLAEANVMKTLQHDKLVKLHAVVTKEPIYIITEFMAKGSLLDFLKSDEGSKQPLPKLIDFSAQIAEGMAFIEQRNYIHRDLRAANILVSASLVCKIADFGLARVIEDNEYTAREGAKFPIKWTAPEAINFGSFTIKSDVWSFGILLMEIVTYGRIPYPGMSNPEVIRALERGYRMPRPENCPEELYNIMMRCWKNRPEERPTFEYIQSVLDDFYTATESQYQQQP
# T5 sequence (Q92918 whole entry): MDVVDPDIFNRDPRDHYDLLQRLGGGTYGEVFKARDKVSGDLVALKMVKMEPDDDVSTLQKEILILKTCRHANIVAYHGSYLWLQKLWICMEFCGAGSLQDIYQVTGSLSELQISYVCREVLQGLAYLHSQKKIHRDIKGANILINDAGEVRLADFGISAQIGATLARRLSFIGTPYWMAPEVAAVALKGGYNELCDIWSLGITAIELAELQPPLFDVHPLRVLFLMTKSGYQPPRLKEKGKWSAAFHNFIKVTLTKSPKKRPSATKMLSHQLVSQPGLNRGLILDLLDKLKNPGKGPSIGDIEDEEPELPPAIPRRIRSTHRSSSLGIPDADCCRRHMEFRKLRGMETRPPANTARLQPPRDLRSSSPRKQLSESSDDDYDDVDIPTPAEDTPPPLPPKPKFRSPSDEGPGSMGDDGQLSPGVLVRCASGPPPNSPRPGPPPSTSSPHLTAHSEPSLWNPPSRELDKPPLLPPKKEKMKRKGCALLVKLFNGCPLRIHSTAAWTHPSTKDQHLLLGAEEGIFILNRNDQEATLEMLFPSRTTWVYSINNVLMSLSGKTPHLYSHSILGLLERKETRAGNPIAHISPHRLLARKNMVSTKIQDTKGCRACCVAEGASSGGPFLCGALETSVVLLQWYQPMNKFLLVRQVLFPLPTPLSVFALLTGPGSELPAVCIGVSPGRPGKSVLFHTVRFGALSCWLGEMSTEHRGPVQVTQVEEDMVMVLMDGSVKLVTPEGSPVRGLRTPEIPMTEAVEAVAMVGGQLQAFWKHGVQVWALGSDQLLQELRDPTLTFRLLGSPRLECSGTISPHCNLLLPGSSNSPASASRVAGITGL
# T1 sequence (O75582 whole entry): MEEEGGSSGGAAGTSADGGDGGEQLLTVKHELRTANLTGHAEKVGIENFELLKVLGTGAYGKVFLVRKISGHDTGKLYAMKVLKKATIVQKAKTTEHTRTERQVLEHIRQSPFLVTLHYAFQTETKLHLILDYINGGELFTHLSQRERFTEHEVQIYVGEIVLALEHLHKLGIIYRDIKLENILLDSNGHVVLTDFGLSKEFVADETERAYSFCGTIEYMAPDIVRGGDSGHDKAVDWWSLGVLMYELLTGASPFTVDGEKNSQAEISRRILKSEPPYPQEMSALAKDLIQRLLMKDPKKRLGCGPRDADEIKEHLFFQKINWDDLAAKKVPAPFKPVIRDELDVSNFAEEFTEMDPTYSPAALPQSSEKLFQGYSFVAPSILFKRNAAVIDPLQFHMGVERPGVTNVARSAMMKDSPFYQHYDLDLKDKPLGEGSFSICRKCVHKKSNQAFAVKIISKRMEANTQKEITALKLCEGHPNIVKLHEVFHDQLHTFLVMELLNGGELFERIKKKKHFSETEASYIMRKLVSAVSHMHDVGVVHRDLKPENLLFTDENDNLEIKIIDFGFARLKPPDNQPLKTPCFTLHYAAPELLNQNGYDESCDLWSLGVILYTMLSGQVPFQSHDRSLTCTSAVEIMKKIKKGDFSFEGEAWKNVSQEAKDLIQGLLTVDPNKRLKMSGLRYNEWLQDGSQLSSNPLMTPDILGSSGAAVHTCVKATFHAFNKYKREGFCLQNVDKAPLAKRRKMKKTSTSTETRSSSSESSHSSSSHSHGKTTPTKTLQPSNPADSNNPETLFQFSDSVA
# T6 sequence (Q9BXA6 whole entry): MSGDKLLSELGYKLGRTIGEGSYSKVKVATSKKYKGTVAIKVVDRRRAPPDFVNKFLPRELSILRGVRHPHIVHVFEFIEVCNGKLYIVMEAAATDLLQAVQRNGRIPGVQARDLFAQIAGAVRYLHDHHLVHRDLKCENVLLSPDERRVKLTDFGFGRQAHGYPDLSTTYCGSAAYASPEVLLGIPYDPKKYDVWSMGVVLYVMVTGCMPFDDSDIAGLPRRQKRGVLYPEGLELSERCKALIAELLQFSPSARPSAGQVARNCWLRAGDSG
# T2 sequence (Q00535 whole entry): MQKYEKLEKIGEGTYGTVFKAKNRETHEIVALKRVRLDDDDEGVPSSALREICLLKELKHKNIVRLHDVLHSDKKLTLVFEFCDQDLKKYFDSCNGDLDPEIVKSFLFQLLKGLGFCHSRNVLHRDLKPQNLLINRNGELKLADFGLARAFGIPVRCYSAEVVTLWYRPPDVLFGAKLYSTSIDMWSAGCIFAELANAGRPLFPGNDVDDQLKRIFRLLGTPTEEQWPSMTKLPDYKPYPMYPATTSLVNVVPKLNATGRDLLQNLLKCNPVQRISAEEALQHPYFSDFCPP
# T2 sequence (Q15078 2-307 partner limits assumed): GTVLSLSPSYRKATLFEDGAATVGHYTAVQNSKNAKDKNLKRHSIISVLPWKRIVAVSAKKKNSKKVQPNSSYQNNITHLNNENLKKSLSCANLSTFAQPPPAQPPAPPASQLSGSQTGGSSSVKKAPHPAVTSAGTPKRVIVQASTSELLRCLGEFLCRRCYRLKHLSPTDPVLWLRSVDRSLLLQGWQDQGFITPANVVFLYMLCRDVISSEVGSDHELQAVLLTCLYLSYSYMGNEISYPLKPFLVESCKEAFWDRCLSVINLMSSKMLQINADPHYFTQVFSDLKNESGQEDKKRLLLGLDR
smiles,measurement,setting,value
C=CC(=O)Nc1cccc(Nc2nc(Nc3ccc(OCCOC)c(F)c3)ncc2F)c1 [Compound 2],inhibition at 3 µM,MSK1/RPS6KA5,2.7%
same,remaining activity at 3 µM,MSK1/RPS6KA5; [1],94.9%
same,remaining activity at 3 µM,MSK1/RPS6KA5; [2],99.7%
same,inhibition at 3 µM,CDK5/p35,4.49%
same,remaining activity at 3 µM,CDK5/p35; [1],95%
same,remaining activity at 3 µM,CDK5/p35; [2],96.1%
same,inhibition at 3 µM,TLK1,-2.91%
same,remaining activity at 3 µM,TLK1; [1],102%
same,remaining activity at 3 µM,TLK1; [2],103%
same,inhibition at 3 µM,P70S6Kb/RPS6KB2,4.15%
same,remaining activity at 3 µM,P70S6Kb/RPS6KB2; [1],95.6%
same,remaining activity at 3 µM,P70S6Kb/RPS6KB2; [2],96.1%
same,inhibition at 3 µM,HPK1/MAP4K1,12.9%
same,remaining activity at 3 µM,HPK1/MAP4K1; [1],85.8%
same,remaining activity at 3 µM,HPK1/MAP4K1; [2],88.4%
same,inhibition at 3 µM,SSTK/TSSK6,-3.6%
same,remaining activity at 3 µM,SSTK/TSSK6; [1],107%
same,remaining activity at 3 µM,SSTK/TSSK6; [2],99.8%
same,inhibition at 3 µM,HCK,29.5%
same,remaining activity at 3 µM,HCK; [1],72%
same,remaining activity at 3 µM,HCK; [2],69%
same,inhibition at 3 µM,GRK7,9.96%
same,remaining activity at 3 µM,GRK7; [1],89.1%
same,remaining activity at 3 µM,GRK7; [2],90.9%
